# Entries after “also recorded” stand apart in the source; their conditions may differ.
# Assays:
# Assay type in all cases: cell-based
# CDK4/6 [1] = experiment: Characterization of CDK4/6 degraders/disruptors in various breast cancer and melanoma cells (summary, Examples 12 and 13)
# Description: Specific exemplary abemaciclib-, ribociclib-, and palbociclib-based CDK4/6 degraders/disruptors were characterized in various different breast cancer and melanoma cells (Examples 12 and 13, FIGS. 10-23). […] This efficacy in suppressing CDK4/6 expression and CDK4/6 activity correlated with efficacy in inhibiting cancer cell proliferation.
# (§1) Protein concentrations were determined by BCA from cell lysates and equal amounts of protein are loaded to a Bis-Tris 4-12% gel. Gels were run at 80 V for 4 h using 1× running buffer (25 mM Tris, pH 8.3, […] glycine, 0.1% SDS). Proteins were transferred to a nitrocellulose membrane for 2 h at 100 V using transfer buffer (25 mM Tris, pH 8.3, […] glycine, 20% methanol). Ponceau S staining (0.1% Ponceau S, 1% acetic acid) was used to confirm transfer of proteins to the membrane followed by blocking of the membrane for 30 min at room temperature using blocking buffer (5% dry nonfat milk, 0.1% Tween, 0.02% sodium azide in TBS). The blocked membrane is incubated with primary antibodies (1:1000 dilution) in blocking buffer at 4° C. overnight. When primary phosphor-antibodies were used, then the membrane is incubated with 5% BSA instead of milk. The membrane was washed three times, 10 min each, with wash buffer (0.1% Tween in TBS) followed by incubation with secondary HRP conjugated antibody (1:5000 dilution) in 2.5% dry nonfat milk, 0.1% Tween in TBS for 1 h at room temperature. The membrane was washed three times, 10 min each, with wash buffer (0.1% Tween in TBS). Membranes are incubated with ECL for 1 min and proteins are detected after exposure to a blue autoradiographic film.
# CDK4/6 [2] = experiment: Western blot of CDK4, CDK6 and phospho-Rb in A375 melanoma cells treated with degraders (Example 12, FIGS. 12, 13, 16, 18); conditions: 24 h
# Description: (§2) Breast cancer cell lines (MCF7, T47D, and ZR-75-1) and melanoma cell lines (A375, SK-MEL-2, SK-MEL-30, and WM1382) were cultured in the presence of DMEM or RPMI supplemented with 10% FBS in the presence of penicillin and streptomycin.
# as §1
# A375 melanoma cells (FIG. 13) were treated with 1 or 3 μM Ribociclib (RB), YX030-126, YX030-108, YX030-107, YX030-086, YX030-085 or XY028-133 for 24 h, then lysed and immunoblotted with antibodies to CDK4, CDK6, cyclin A, PLK1, phospho-Rb (pRb), and actin.
# A375 melanoma cells (FIG. 16, panel A) were treated with 0.3 or 1 μM XY028-140, YX039-65, YX039-48, YX039-123, YX039-56, YX039-124 or YX039-147 for 24 h. A375 melanoma cells were treated with 1 or 3 μM XY028-140, YX039-56, YX039-65 or XY028-133 (FIG. 16, panel B). Cells were lysed and immunoblotted with antibodies to phospho-Rb (pRb), total Rb, PLK1, cyclin A, CDK4, CDK6, and actin.
# A375 melanoma cells (FIG. 18) were treated with 1 or 3 μM XY028-133, YX044-18, YX044-22, XY028-140, YX044-19 or YX044-38 for 24 h, then lysed and immunoblotted with antibodies to phospho-Rb (pRb), total Rb, PLK1, cyclin A, CDK4, CDK6, and actin.
# A375 melanoma cells [3] = experiment: Crystal violet staining (clonogenic assay) of A375 melanoma cells (Example 13, FIG. 21); conditions: 0.03-3 μM, 11 days
# Description: Cells were cultured for 7-11 days in the presence of different compounds. Media with compound was replenished every two days. At the end of the experiment, media was aspirated and viable cells were stained with 0.5% crystal violet dye.
# A375 melanoma cells [4] = experiment: Bright field imaging of A375 melanoma cell proliferation (Example 13, FIG. 20); conditions: 1 or 2 μM, 7 days
# CDK4/6 [5] = target: T1, CDK4/6 (Homo sapiens, UniProt P11802); experiment: Western blot of CDK4/6 and phospho-Rb in T47D breast cancer cells treated with degraders (Example 12, FIGS. 10 B, 17, 19); conditions: 24 h
# T1 construct: endogenous in cells; host or cells: MCF7, T47D, ZR-75-1 (breast cancer); A375, SK-MEL-2, SK-MEL-30, WM1382 (melanoma)
# Description: as §2, §1
# (§3) MCF7 breast cancer cells were treated with 1 or 5 μM XY019-095, XY019-098, XY019-0100, XY019-105A, XY019-105B, XY019-106, or XY019-108 for 24 h, then lysed and immunoblotted with antibodies to CDK4, CDK6, and actin (FIG. 10, panel A). […] T47D breast cancer cells were treated with 0.1, 0.3, 1, 3, 10, or 30 μM XY019-106 for 24 h, then lysed and immunoblotted with antibodies to phospho-Rb (pRB), CDK4, and actin (FIG. 10, panel B).
# (§4) T47D breast cancer cells (FIG. 17) were treated with 0.3 or 1 μM XY028-140, YX039-48, YX039-123, YX039-56, YX039-124, YX039-65, YX039-147 or YX039-74 for 24 h, then lysed and immunoblotted with antibodies to phospho-Rb (pRb), total Rb, PLK1, cyclin A, CDK4, CDK6, and actin.
# (§5) T47D breast cancer cells (FIG. 19) were treated with 0.3 or 1 μM XY028-133, YX044-18, YX044-22, XY028-140, YX044-19 or YX044-38 for 24 h, then lysed and immunoblotted with antibodies to phospho-Rb (pRb), total Rb, PLK1, cyclin A, CDK4, CDK6, and actin.
# CDK4/6 [6] = experiment: as above; conditions: concentrations as high as 30 μM, 24 h
# Description: as §2, §1, §3, §4, §5
# CDK4/6 [7] = experiment: Western blot of CDK4 and CDK6 in MCF7 breast cancer cells treated with degraders (Example 12, FIG. 10 A); conditions: 1 or 5 μM, 24 h
# Description: as §2, §1, §3
# CDK4/6 [8] = experiment: Western blot of CDK4, CDK6 and phospho-Rb in SK-MEL-2 or A375 melanoma cells treated with degraders (Example 12, FIG. 11); conditions: SK-MEL-2 or A375 cells; 1 or 3 μM; 24 h
# Description: as §2
# as §1, with “The membrane was washed three times, 10 min each, with wash buffer (0.1% Tween in TBS) followed by incubation with secondary HRP conjugated antibody (1:5000 dilution) in 2.5% dry nonfat milk, 0.1% Tween in TBS for 1 h at room temperature. The membrane was washed three times, 10 min each, with wash buffer (0.1% Tween in TBS).” left out, “film. […]” for “film.”
# [9] = test system: V5-tagged CDK4 or V5-tagged CDK6; experiment: Western blot of V5-tagged CDK4 or CDK6 ectopically expressed in 293H cells (Example 8); conditions: 1, 3 or 10 μM, 24 h
# Description: Protein concentrations were determined by BCA from cell lysates and equal amounts of protein are loaded to a Bis-Tris 4-12% gel. Gels were run at 80 V for 4 h using 1× running buffer (25 mM Tris, pH 8.3, 1.92 M glycine, 0.1% SDS). Proteins were transferred to a nitrocellulose membrane for 2 h at 100 V using transfer buffer (25 mM Tris, pH 8.3, 1.92 M glycine, 20% methanol). Ponceau S staining (0.1% Ponceau S, 1% acetic acid) was used to confirm transfer of proteins to the membrane followed by blocking of the membrane for 30 min at room temperature using blocking buffer (5% dry nonfat milk, 0.1% Tween, 0.02% sodium azide in TBS). The blocked membrane is incubated with primary antibodies (1:1000 dilution) in blocking buffer at 4° C. overnight. When primary phosphor-antibodies were used, then the membrane is incubated with 5% BSA instead of milk. The membrane was washed three times, 10 min each, with wash buffer (0.1% Tween in TBS) followed by incubation with secondary HRP conjugated antibody (1:5000 dilution) in 2.5% dry nonfat milk, 0.1% Tween in TBS for 1 h at room temperature. The membrane was washed three times, 10 min each, with wash buffer (0.1% Tween in TBS). Membranes are incubated with ECL for 1 min and proteins are detected after exposure to a blue autoradiographic film.
# T1 sequence (P11802 2-303): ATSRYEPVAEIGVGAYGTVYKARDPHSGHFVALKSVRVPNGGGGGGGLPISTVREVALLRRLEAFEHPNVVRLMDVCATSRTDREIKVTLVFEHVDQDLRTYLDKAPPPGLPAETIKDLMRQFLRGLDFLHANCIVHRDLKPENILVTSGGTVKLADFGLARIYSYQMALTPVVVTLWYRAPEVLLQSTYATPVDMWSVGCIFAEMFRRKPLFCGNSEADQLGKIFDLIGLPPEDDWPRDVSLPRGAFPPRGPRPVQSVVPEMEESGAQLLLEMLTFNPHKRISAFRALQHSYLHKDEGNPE
concentrations with significant effects on CDK4 expression and Rb phosphorylation (CDK4/6 [5]) [µM],Compound,suppression of both CDK4/6 expression and CDK4/6 activity (summary) (CDK4/6 [1]),"efficacy in inhibiting both CDK4/6 expression and CDK4/6 activity (decreased Rb phosphorylation) (CDK4/6 [2]; 0.3 or 1 μM (FIG. 16 A), 1 or 3 μM (FIG. 16 B))",efficacy in inhibiting both CDK4/6 expression and CDK4/6 activity (decreased Rb phosphorylation) (CDK4/6 [2]; 1 or 3 μM),inhibition of cancer cell proliferation compared with palbociclib (crystal violet staining) (A375 melanoma cells [3]),inhibition of cancer cell proliferation compared with palbociclib (bright field imaging) (A375 melanoma cells [4]),suppression of CDK4 expression and inhibition of CDK4 activity (Rb phosphorylation) (CDK4/6 [5]; 0.1-30 μM),inhibition of Rb phosphorylation at high concentrations (CDK4/6 [6]),suppression of CDK4/6 expression (CDK4/6 [7]),efficacy in inhibiting both CDK4/6 expression and CDK4/6 activity (decreased Rb phosphorylation) (CDK4/6 [8]),expression of V5-tagged CDK4 and CDK6 [9]
–,"CC(=O)c1c(C)c2cnc(Nc3ccc(N4CCN(C(=O)CCCCCC(=O)N[C@H](C(=O)N5C[C@H](O)C[C@H]5C(=O)NCc5ccc(-c6scnc6C)cc5)C(C)(C)C)CC4)cn3)nc2n(C2CCCC2)c1=O [XY028-133, (2S,4R)-1-((S)-2-(7-(4-(6-((6-acetyl-8-cyclopentyl-5-methyl-7-oxo-7,8-dihydropyrido[2,3-d]pyrimidin-2-yl)amino)pyridin-3-yl)piperazin-1-yl)-7-oxoheptanamido)-3,3-dimethylbutanoyl)-4-hydroxy-N-(4-(4-methylthiazol-5-yl)benzyl)pyrrolidine-2-carboxamide]",especially effective in suppressing both CDK4/6 expression and CDK4/6 activity,"efficacy of CDK4/6 degraders, particularly XY028-133","efficacy of CDK4/6 degraders, particularly XY028-133, XY028-140, XY019-106 and XY028-003; also recorded: efficacy of CDK4/6 degraders, particularly XY028-133 and YX044-18",more effective in inhibiting cancer cell proliferation than palbociclib at 1 and 3 μM,more effective in inhibiting cancer cell proliferation than palbociclib at the same concentration,–,–,–,–,–
≥ 0.3,"CC(=O)c1c(C)c2cnc(Nc3ccc(N4CCN(C(=O)CCCCCCC(=O)N[C@H](C(=O)N5C[C@H](O)C[C@H]5C(=O)NCc5ccc(-c6scnc6C)cc5)C(C)(C)C)CC4)cn3)nc2n(C2CCCC2)c1=O [XY019-106, (2S,4R)-1-((S)-2-(8-(4-(6-((6-acetyl-8-cyclopentyl-5-methyl-7-oxo-7,8-dihydropyrido[2,3-d]pyrimidin-2-yl)amino)pyridin-3-yl)piperazin-1-yl)-8-oxooctanamido)-3,3-dimethylbutanoyl)-4-hydroxy-N-(4-(4-methylthiazol-5-yl)benzyl)pyrrolidine-2-carboxamide]",especially effective in suppressing both CDK4/6 expression and CDK4/6 activity,–,"efficacy of CDK4/6 degraders, particularly XY028-133, XY028-140, XY019-106 and XY028-003",–,–,both suppresses CDK4 expression and inhibit CDK4 activity,inhibited Rb phosphorylation even when administered at high concentrations,especially effective in suppressing CDK4/6 expression even at 1 μM,"efficacy of CDK4/6 degraders/disruptors, particularly XY019-106 and XY028-003",–
–,CN(C)C(=O)c1cc2cnc(Nc3ccc(N4CCNCC4)cn3)nc2n1C1CCCC1 [ribociclib],–,–,–,–,–,–,–,–,–,upregulated the expression of V5-tagged CDK4 and CDK6

# — patent US11541051B2, “Compositions and methods for treating CDK4/6-mediated cancer” (Icahn School of Medicine at Mount Sinai, priority 2016, dated 2023)
